Entries after “also recorded” stand apart in the source; their conditions may differ. Like-named read-outs stand apart in the source and are kept apart here.

Assay [1] addresses T1, β2-adrenergic receptor (β2AR) (Homo sapiens, UniProt P07550).
T1 construct: expressed in transfected cells; host or cells: HEK293T (transient, calcium phosphate)
The assay can be described thus: BRET in membrane preparations from HEK293T cells co-expressing β2AR-Rluc and GFP10-Gβ1 or GFP10-Gγ2. The class given is biochemical. Conditions: membranes. On the technique in general: In BRET a luciferase serves as donor, and the signal depends on an acceptor being close.
Experimental: Treatments: Iso, 10 μM; Feno, 10 μM; ICI, 100 μM; GTPγS, 200 μM. […] Rluc-tagged receptors and G protein constructs were transiently co-transfected in HEK293T cells. […] Forty-eight hours post-transfection, cells were washed twice with PBS, detached with PBS-5 mM EDTA and resuspended in PBS-0.1% glucose at RT. […] DeepBlueCTM coelenterazine (PerkinElmer) was added at a final concentration of 5 μM, and readings (except for the kinetic studies; see below) were collected using a modified top-count apparatus (TopCount.NXTM, Packard Bioscience) that allows the sequential integration of the signals detected in the 370-450 nm and 500-530 nm windows using filters with the appropriate band pass (Chroma). […] The net BRET values were obtained by subtracting the BRET background signal detected when the Rluc-tagged construct was expressed alone from BRET signals detected in cells coexpressing both Rluc- and GFP10-tagged constructs. […] The expression level of each protein was determined by direct measurement of total fluorescence and luminescence on aliquots of the transfected cells. […] To avoid variations in the BRET signal that could result from fluctuations in the relative expression levels of the energy donor and acceptor, transfection conditions were designed so as to maintain a constant GFP10/Rluc expression ratio in each experimental set.

Assay [2] has as its target T2, human α2A-adrenergic receptor (α2AAR) (Homo sapiens, UniProt P08913).
T2 construct: expressed in transfected cells; host or cells: HEK293T (transient)
T2 sequence (P08913 1-465): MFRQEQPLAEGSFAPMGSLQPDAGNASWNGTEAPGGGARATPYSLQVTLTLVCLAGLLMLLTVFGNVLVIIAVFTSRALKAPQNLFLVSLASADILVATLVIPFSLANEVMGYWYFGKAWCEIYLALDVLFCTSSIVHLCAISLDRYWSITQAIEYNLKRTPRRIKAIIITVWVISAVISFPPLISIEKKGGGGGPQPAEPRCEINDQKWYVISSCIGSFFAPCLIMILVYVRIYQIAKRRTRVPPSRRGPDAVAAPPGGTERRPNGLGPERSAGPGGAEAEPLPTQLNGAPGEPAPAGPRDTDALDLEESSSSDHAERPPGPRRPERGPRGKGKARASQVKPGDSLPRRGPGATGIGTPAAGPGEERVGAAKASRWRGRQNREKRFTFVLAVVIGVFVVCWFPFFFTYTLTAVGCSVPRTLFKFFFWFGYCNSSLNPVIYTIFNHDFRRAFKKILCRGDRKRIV
In words: BRET between α2AAR and tagged G protein subunits (Gβ1, Gγ2, Gαi1-91Rluc, Gαi1-122Rluc) in living HEK293T cells. The class given is cell-based. Conditions: for effect of pre-treatment on agonist-promoted changes in BRET between α2AAR and G protein subunits: pertussis toxin 16 h at 37° C., UK14,304, FIG. 21.
Experimental: (§1) Rluc-tagged receptors and G protein constructs were transiently co-transfected in HEK293T cells. […] For the experiment using α2AAR-Rluc (FIG. 4f), the G protein heterotrimer was complimented with the most specific Gαi2. Forty-eight hours post-transfection, cells were washed twice with PBS, detached with PBS-5 mM EDTA and resuspended in PBS-0.1% glucose at RT. Cells (50 μg of proteins per well) were then distributed in a 96-well microplate (white Optiplate, PerkinElmer) and incubated in the presence or absence of different ligands for 1 min except in the case of the kinetic studies where the times are indicated. DeepBlueC™ coelenterazine (PerkinElmer) was added at a final concentration of 5 μM, and readings (except for the kinetic studies; see below) were collected using a modified top-count apparatus (TopCount.NX™, Packard Bioscience) that allows the sequential integration of the signals detected in the 370-450 nm and 500-530 nm windows using filters with the appropriate band pass (Chroma). The BRET signal was determined by calculating the ratio of the light emitted by GFP10 (500-530 nm) over the light emitted by the Rluc (370-450 nm). The net BRET values were obtained by subtracting the BRET background signal detected when the Rluc-tagged construct was expressed alone from BRET signals detected in cells coexpressing both Rluc- and GFP10-tagged constructs. […] The expression level of each protein was determined by direct measurement of total fluorescence and luminescence on aliquots of the transfected cells. The GFP10 total fluorescence was measured using a FluoroCount (PerkinElmer) with an excitation filter at 400 nm, an emission at 510 nm, and the following parameters: gain 1; PMT 1100 V; time 1.0 s. After fluorescence measurement, the same cells were incubated for 8 min with Coelenterazine h (Molecular Probes) at a final concentration of 5 μM and the total luminescence of cells was measured using a LumiCount (PerkinElmer Life Sciences) with the following parameters: gain 1; PMT 900 V; time 0.5 s. […] To avoid variations in the BRET signal that could result from fluctuations in the relative expression levels of the energy donor and acceptor, transfection conditions were designed so as to maintain a constant GFP10/Rluc expression ratio in each experimental set.
For kinetic analysis of receptor/Gαβγ interactions, DeepBlueC™ or Coelenterazine h luciferase substrate was added prior to the injection of the different ligands using the Mithras LB 940 apparatus (Berthold) and MicroWin2000 software. Readings were then collected at 0.05 or 0.1 sec intervals. Injection of the different ligands was included with in the kinetic program to allow a baseline recording followed by real-time recording of the BRET changes. The BRET signals were determined for each time by calculating the ratio of the light emitted by GFP over that emitted by the Rluc. To determine the half-time (t½) of Iso-induced BRET, data were represented as the difference between the Iso-induced BRET signals and the average of basal BRET signal (net agonist-promoted BRET signal). Curves were fitted using a non-linear regression and one phase exponential association fit equation (GraphPad Prism).
For agonist stimulations longer than 1 minute, cells were first treated with the ligand (agonist, antagonist, inverse agonist) and DeepBlueC™ coelenterazine added immediately before BRET readings in the modified TopCount.NXT™ apparatus. For these experiments, readings were taken directly in 96 well plates 72 hours post-transfection without detaching the cells.

For assay [3], the target named is T3, α2AAR (Homo sapiens, UniProt P08913).
T3 construct: expressed in transfected cells; host or cells: HEK293T
T3 sequence (P08913 1-465): T2 sequence (P08913 1-465)
The assay can be described thus: BRET between Gαi1-Rluc and GFP10-Gγ2 in the presence of α2AAR (Gα/Gβγ interaction). The class given is cell-based.
Experimental: as §1

In assay [4] the target is T1, β2-adrenergic receptor (β2AR). In words: BRET2 receptor/G protein interaction assay: β2AR-Rluc (or β2AR-GFP10) with tagged G protein subunits in living HEK293T cells. The class given is cell-based.
Experimental: Rluc-tagged receptors and G protein constructs were transiently co-transfected in HEK293T cells. […] For the experiment using α2AAR-Rluc (FIG. 4f), the G protein heterotrimer was complimented with the most specific Gαi2. Forty-eight hours post-transfection, cells were washed twice with PBS, detached with PBS-5 mM EDTA and resuspended in PBS-0.1% glucose at RT. Cells (50 μg of proteins per well) were then distributed in a 96-well microplate (white Optiplate, PerkinElmer) and incubated in the presence or absence of different ligands for 1 min except in the case of the kinetic studies where the times are indicated. DeepBlueC™ coelenterazine (PerkinElmer) was added at a final concentration of 5 μM, and readings (except for the kinetic studies; see below) were collected using a modified top-count apparatus (TopCount.NX™, Packard Bioscience) that allows the sequential integration of the signals detected in the 370-450 nm and 500-530 nm windows using filters with the appropriate band pass (Chroma). The BRET signal was determined by calculating the ratio of the light emitted by GFP10 (500-530 nm) over the light emitted by the Rluc (370-450 nm). The net BRET values were obtained by subtracting the BRET background signal detected when the Rluc-tagged construct was expressed alone from BRET signals detected in cells coexpressing both Rluc- and GFP10-tagged constructs. […]
[5] abbreviates: untagged α2AAR, ligands 10 μM, FIG. 27A, 27C.

Turning to `Nc1nc2c(ncn2[C@@H]2O[C@H](COP(=O)(O)OP(=O)(O)OP(=O)(O)O)[C@@H](O)[C@H]2O)c(=O)[nH]1` [GTP, Guanosine triphosphate], the “effect of GTP on basal and agonist-stimulated BRET, β2AR-Rluc / GFP-Gβ1 or GFP-Gγ2” value in assay [1] (high GTP concentrations, 90 min at 25° C., Iso 10 μM, FIG. 9) is recorded as “GTP sensitive”.
Regarding `Nc1nc2c(ncn2[C@@H]2O[C@H](COP(=O)(O)OP(=O)(O)OP(O)(O)=S)[C@@H](O)[C@H]2O)c(=O)[nH]1` [GTPγS], the “effect on agonist-promoted BRET signal, β2AR-Rluc / GFP10-Gβ1 or GFP10-Gγ2” value in assay [1] (GTPγS 200 μM, 90 min at 25° C. pretreatment, Iso 10 μM) was “attenuated the agonist-promoted signal”. Besides, in assay [1] (GTPγS 200 μM, 90 min at 25° C. pretreatment), the “effect on basal BRET in the absence of agonist, β2AR-Rluc / GFP10-Gβ1 or GFP10-Gγ2” value is reported as “reduced the basal BRET”.
For the compound `COC1(C2=NCCN2)COc2ccccc2O1` (stereo not shown) [RX821002], the “effect of pretreatment on UK14,304-promoted BRET increase, α2AAR / G protein pairs” value in assay [2] (FIG. 25) was “completely blocked the UK14,304-promoted BRET increase”. In assay [2] (agonist UK14304, FIG. 3E), the “effect of preincubation on agonist-stimulated BRET response, Gαi1-Rluc / α2AAR-GFP10” value is recorded as “completely blocked the agonist-stimulated response”. In addition, the “modulation of BRET, Gαi1-Rluc / α2AAR-GFP10” value in assay [2] (ligands 10 μM, FIG. 3E) is “unable to modulate the BRET signal”. Also, in assay [2] (ligands 10 μM, FIG. 20, 25), the “change in BRET2, Gαi1-91Rluc / α2AAR-GFP2” value was “little or no effect”; the “change in BRET2, Gαi1-122Rluc / α2AAR-GFP2” value is recorded as “promoted a decrease in the BRET”; the “change in BRET2, α2AAR-Rluc / GFP10-Gβ1” value is listed as “little or no effect”; the “change in BRET2, α2AAR-Rluc / GFP10-Gγ2” value is “little or no effect”. Moreover, in assay [3] (setting [5]), the “change in BRET, Gαi1-91Rluc / GFP10-Gγ2” value is listed as “no effect on the BRET signal” and the “change in BRET, Gαi1-122Rluc / GFP10-Gγ2” value was “significant decrease in the BRET signal”.
Turning to `Brc1c(NC2=NCCN2)ccc2nccnc12` [UK14,304], in assay [2], the “change in BRET1, Gαi1-91Rluc / α2AAR-Venus, measured concomitantly with BRET2 in the same cells” value is given as “increase in the BRET”; the “change in BRET2, Gαi1-91Rluc / α2AAR-GFP2” value is “significantly increased the BRET”; the “change in BRET2, α2AAR-Rluc / GFP10-Gβ1” value is given as “significantly increased the BRET”; the “change in BRET2, α2AAR-Rluc / GFP10-Gγ2” value is on record as “significantly increased the BRET”. In addition, in assay [2], the “loss (decrease) of BRET signal, α2AAR-Rluc / GFP10-Gγ2” value is 24%; the “real-time BRET1 change, Gαi1-91Rluc / α2AAR-Venus” value was “rapid increases in the BRET”; the “real-time BRET1 change, Rluc-Gγ2 / α2AAR-Venus” value is recorded as “rapid increases in the BRET”; the “real-time BRET1 change, α2AAR-Venus / Gαi1-122Rluc” value was “rapid decrease in BRET^1”. In assay [2], the “time BRET levels reached following agonist stimulation remained constant, α2AAR-Venus pairs” value is reported as “at least 12 seconds”. Besides, in assay [3], the “change in BRET2, Gαi1-91Rluc / GFP10-Gγ2, measured concomitantly with BRET1 in the same cells” value is reported as “decrease in BRET^2”; the “change in BRET, Gαi1-91Rluc / GFP10-Gγ2” value is given as “promoted a reduction of BRET; also recorded: decreased the BRET”; the “change in BRET, Gαi1-122Rluc / GFP10-Gγ2” value was “promoted a reduction of BRET; also recorded: decreased the BRET”.
`Clc1cccc(Cl)c1N=C1NCCN1` [clonidine, Clonidine]: in assay [2], the “change in BRET2, Gαi1-91Rluc / α2AAR-GFP2” value was “partial increase in BRET”; the “change in BRET2, α2AAR-Rluc / GFP10-Gβ1” value is listed as “partial increase in BRET”; the “change in BRET2, α2AAR-Rluc / GFP10-Gγ2” value is given as “partial increase in BRET”; the “modulation of BRET, Gαi1-Rluc / α2AAR-GFP10” value is listed as “induced only a fraction of the full agonist modulation UK14304”. In addition, in assay [3], the “change in BRET, Gαi1-91Rluc / GFP10-Gγ2” value is reported as “decreased the BRET” and the “change in BRET, Gαi1-122Rluc / GFP10-Gγ2” value is “decreased the BRET”.
As for `Cc1cccc([C@H](C)c2cnc[nH]2)c1C` [dexmedetomidine, Dexmedetomidine], in assay [2], the “change in BRET2, Gαi1-91Rluc / α2AAR-GFP2” value is given as “partial increase in BRET”; the “change in BRET2, Gαi1-122Rluc / α2AAR-GFP2” value is recorded as “larger responses”; the “change in BRET2, α2AAR-Rluc / GFP10-Gβ1” value was “partial increase in BRET”; the “change in BRET2, α2AAR-Rluc / GFP10-Gγ2” value was “partial increase in BRET”. Also, the “modulation of BRET, Gαi1-Rluc / α2AAR-GFP10” value in assay [2] is “induced only a fraction of the full agonist modulation UK14304”. In addition, in assay [3] (setting [5]), the “change in BRET, Gαi1-91Rluc / GFP10-Gγ2” value is listed as “decreased the BRET” and the “change in BRET, Gαi1-122Rluc / GFP10-Gγ2” value is on record as “decreased the BRET”.
For the compound `CC(Cc1ccc(O)cc1)NCC(O)c1cc(O)cc(O)c1` (stereo not shown) [fenoterol], the “ligand-promoted BRET response, β2AR-Rluc / GFP10-Gβ1 or GFP10-Gγ2, compared with isoproterenol” value in assay [4] (Feno 10 μM, Iso 10 μM, FIG. 3C) is reported as “promoted only a fraction of the response evoked by the full agonist isoproterenol”.
As to `COC(=O)[C@@H]1[C@H]2C[C@H]3c4[nH]c5ccccc5c4CCN3C[C@@H]2CC[C@@H]1O` [yohimbine, Yohimbine], in assay [2], the “change in BRET2, Gαi1-91Rluc / α2AAR-GFP2” value was “little or no effect”; the “change in BRET2, Gαi1-122Rluc / α2AAR-GFP2” value is given as “promoted a decrease in the BRET”; the “change in BRET2, α2AAR-Rluc / GFP10-Gβ1” value was “little or no effect”; the “change in BRET2, α2AAR-Rluc / GFP10-Gγ2” value was “little or no effect”. For the same compound, the “modulation of BRET, Gαi1-Rluc / α2AAR-GFP10” value in assay [2] is reported as “unable to modulate the BRET signal”. Also, in assay [3] (setting [5]), the “change in BRET, Gαi1-91Rluc / GFP10-Gγ2” value was “no effect on the BRET signal” and the “change in BRET, Gαi1-122Rluc / GFP10-Gγ2” value is “significant decrease in the BRET signal”.
Regarding “AVP: Vasopressin-selective agonist (V2R)”, the “modulation of BRET signal, β2AR-Rluc / GFP-Gγ2 or GFP-Gβ1, in cells also expressing Myc-V2R” value in assay [4] (10 μM AVP, specificity control, FIG. 7) was “unable to modulate BRET signal”.
For pertussis toxin, the “effect of pre-treatment on agonist-promoted changes in BRET between α2AAR and G protein subunits” value in assay [2] is listed as “blocked”; in assay [2] (listed as PTX), “greatly blunted agonist-promoted BRET changes”. Moreover, the “effect of treatment on UK14,304-promoted BRET changes, Gαi1-91Rluc or Gαi1-122Rluc / GFP10-Gγ2” value in assay [3] (pertussis toxin 16 h at 37° C., FIG. 21) was “abolished”.
